Data as given in patent US12570662B2, “Substituted pyrrolo[1,2-b]pyridazines as bifunctional degraders of interleukin-1 receptor-associated kinases” (Nurix Therapeutics, Inc., priority 2021, dated 2026).

Target: T1, IRAK4 (Homo sapiens, UniProt Q9NWZ3)
T1 construct: C-terminal HiBiT-tagged Jurkat cells (polyclonal cell line or clone 8D5); endogenous in cells; host or cells: Jurkat cells (polyclonal cell line or clone 8D5), HiBiT-tagged
T1 sequence (Q9NWZ3 1-460): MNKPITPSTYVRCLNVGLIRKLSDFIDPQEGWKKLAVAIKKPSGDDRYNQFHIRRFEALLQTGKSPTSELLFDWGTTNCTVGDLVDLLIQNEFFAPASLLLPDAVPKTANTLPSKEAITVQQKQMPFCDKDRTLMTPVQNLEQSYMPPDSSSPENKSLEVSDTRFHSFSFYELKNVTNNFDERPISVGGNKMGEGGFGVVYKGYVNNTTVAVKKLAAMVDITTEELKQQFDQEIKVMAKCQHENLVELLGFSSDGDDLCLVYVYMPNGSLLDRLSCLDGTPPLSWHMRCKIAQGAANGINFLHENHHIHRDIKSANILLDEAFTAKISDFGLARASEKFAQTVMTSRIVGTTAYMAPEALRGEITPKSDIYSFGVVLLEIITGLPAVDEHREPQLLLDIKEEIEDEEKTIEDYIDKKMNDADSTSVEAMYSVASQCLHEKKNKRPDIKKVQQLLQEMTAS
Assay: IRAK4 Degradation HiBit Assay
Assay type: cell-based
Conditions: C-terminal HiBiT-tagged Jurkat cells, 4 hrs incubation; for DC50: % IRAK4 remaining, four-parameter fit (IC50 used as DC50); for Dmax: from fit of % IRAK4 remaining, read-out: Dmax
Procedure, shortened: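 Jurkat cells carrying C-terminal HiBiT-tagged IRAK4 (polyclonal or clone 8D5) exposed to compound, 10 μM–0.1 nM final over 11 points, for 4 h at 32 °C. Remaining IRAK4 measured by lytic HiBiT/LgBiT luminescence relative to DMSO. DC50 and Dmax taken from four-parameter variable-slope fits.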

Compound | DC50 | Dmax
CC(C)Nc1cc(-c2ccc3cc(C#N)cnn23)ncc1-c1nnc(N2CC3CCC(C2)N3CC2CCN(c3ccc(N4CCC(=O)NC4=O)cn3)CC2)s1 [Example 73, 7-(5-{5-[8-({1-[5-(2,4-dioxo-1,3-diazinan-1-yl)pyridin-2-yl]piperidin-4-yl}methyl)-3,8-diazabicyclo[3.2.1]octan-3-yl]-1,3,4-thiadiazol-2-yl}-4-[(propan-2-yl)amino]pyridin-2-yl)pyrrolo[1,2-b]pyridazine-3-carbonitrile] | 0.029 µM | 105%
N#CCNc1cc(-c2ccc3cc(C#N)cnn23)ncc1-c1nnc(N2CC3CCC(C2)N3CC2CCN(c3ccc([C@H]4CCC(=O)NC4=O)cc3)CC2)s1 (racemic) [Example 105, rac-7-{4-[(cyanomethyl)amino]-5-(5-{8-[(1-{4-[(3R)-2,6-dioxopiperidin-3-yl]phenyl}piperidin-4-yl)methyl]-3,8-diazabicyclo[3.2.1]octan-3-yl}-1,3,4-thiadiazol-2-yl)pyridin-2-yl}pyrrolo[1,2-b]pyridazine-3-carbonitrile] | 0.006 µM | 112%
CNc1cc(-c2ccc3cc(C#N)cnn23)ncc1-c1nnc([C@H]2CC[C@H](N(C)C(=O)C3CCN(c4ccc([C@@H]5CCC(=O)NC5=O)cn4)CC3)CC2)s1 (racemic) [Example 49, 1-{5-[(3RS)-2,6-dioxopiperidin-3-yl]pyridin-2-yl}-N-methyl-N-[(1r,4r)-4-[5-(6-{3-cyanopyrrolo[1,2-b]pyridazin-7-yl}-4-(methylamino)pyridin-3-yl)-1,3,4-thiadiazol-2-yl]cyclohexyl]piperidine-4-carboxamide] | 0.013 µM | 112%
CNc1cc(-c2ccc3cc(C#N)cnn23)ncc1-c1nnc([C@H]2CC[C@H](C(=O)N3CCN(c4ccc([C@@H]5CCC(=O)NC5=O)cn4)CC3)CC2)s1 (racemic) [Example 39, 7-[4-(methylamino)-5-{5-[(1r,4r)-4-(4-{5-[(3RS)-2,6-dioxopiperidin-3-yl]pyridin-2-yl}piperazine-1-carbonyl)cyclohexyl]-1,3,4-thiadiazol-2-yl}pyridin-2-yl]pyrrolo[1,2-b]pyridazine-3-carbonitrile] | 0.019 µM | 108%
N#Cc1cnn2c(-c3cc(NC4CC4)c(-c4nnc(N5CC6CCC(C5)N6CC5CCN(c6ccc([C@H]7CCC(=O)NC7=O)cc6)CC5)s4)cn3)ccc2c1 (racemic) [Example 99, rac-7-[4-(cyclopropylamino)-5-(5-{8-[(1-{4-[(3R)-2,6-dioxopiperidin-3-yl]phenyl}piperidin-4-yl)methyl]-3,8-diazabicyclo[3.2.1]octan-3-yl}-1,3,4-thiadiazol-2-yl)pyridin-2-yl]pyrrolo[1,2-b]pyridazine-3-carbonitrile] | 0.056 µM | 73%
N#Cc1cnn2c(-c3cc(NC4CCOCC4)c(-c4nnc(C56CCC(CN7CCC(c8ccc(C9CCC(=O)NC9=O)cn8)CC7)(CC5)CC6)s4)cn3)ccc2c1 (racemic) [Example 23, rac-7-[5-(5-{4-[(4-{5-[(3R)-2,6-dioxopiperidin-3-yl]pyridin-2-yl}piperidin-1-yl)methyl]bicyclo[2.2.2]octan-1-yl}-1,3,4-thiadiazol-2-yl)-4-[(oxan-4-yl)amino]pyridin-2-yl]pyrrolo[1,2-b]pyridazine-3-carbonitrile] | 0.018 µM | 90%
CNc1cc(-c2ccc3cc(C#N)cnn23)ncc1-c1nnc(C2CCN(CC3CCN(c4ccc(C5CCC(=O)NC5=O)cn4)CC3)CC2)s1 (racemic) [Example 81, rac-7-[5-(5-{1-[(1-{5-[(3R)-2,6-dioxopiperidin-3-yl]pyridin-2-yl}piperidin-4-yl)methyl]piperidin-4-yl}-1,3,4-thiadiazol-2-yl)-4-(methylamino)pyridin-2-yl]pyrrolo[1,2-b]pyridazine-3-carbonitrile] | 0.01 µM | 116%
CNc1cc(-c2ccc3cc(C#N)cnn23)ncc1-c1nnc(C23CCC(CN4CCN(c5ccc(C6CCC(=O)NC6=O)cn5)CC4)(CC2)CC3)s1 (racemic) [Example 25, rac-7-[5-(5-{4-[(4-{5-[(3R)-2,6-dioxopiperidin-3-yl]pyridin-2-yl}piperazin-1-yl)methyl]bicyclo[2.2.2]octan-1-yl}-1,3,4-thiadiazol-2-yl)-4-(methylamino)pyridin-2-yl]pyrrolo[1,2-b]pyridazine-3-carbonitrile] | 0.053 µM | 106%

Further lines, results first:

DC50 | Dmax | Compound
0.015 µM | 111% | CNc1cc(-c2ccc3cc(C#N)cnn23)ncc1-c1nnc(C23CCC(NC(=O)C4CCN(c5ccc(C6CCC(=O)NC6=O)cn5)CC4)(CC2)CC3)s1 (racemic) [Example 47, rac-N-{4-[5-(6-{3-cyanopyrrolo[1,2-b]pyridazin-7-yl}-4-(methylamino)pyridin-3-yl)-1,3,4-thiadiazol-2-yl]bicyclo[2.2.2]octan-1-yl}-1-{5-[(3R)-2,6-dioxopiperidin-3-yl]pyridin-2-yl}piperidine-4-carboxamide]
0.071 µM | 104% | N#Cc1cnn2c(-c3cc(NC4CCOCC4)c(-c4nnc(C56CCC(C(=O)N7CCc8cc(C9CCC(=O)NC9=O)ccc8C7)(CC5)CC6)s4)cn3)ccc2c1 (racemic) [Example 57, rac-7-{5-[5-(4-{6-[(3R)-2,6-dioxopiperidin-3-yl]-1,2,3,4-tetrahydroisoquinoline-2-carbonyl}bicyclo[2.2.2]octan-1-yl)-1,3,4-thiadiazol-2-yl]-4-[(oxan-4-yl)amino]pyridin-2-yl}pyrrolo[1,2-b]pyridazine-3-carbonitrile]
0.02 µM | 105% | CCN(CC1CCN(c2ccc([C@@H]3CCC(=O)NC3=O)cn2)CC1)[C@H]1CC[C@H](c2nnc(-c3cnc(-c4ccc5cc(C#N)cnn45)cc3NC)s2)CC1 (racemic) [Example 36, 7-[4-(methylamino)-5-{5-[(1r,4r)-4-{[(1-{5-[(3RS)-2,6-dioxopiperidin-3-yl]pyridin-2-yl}piperidin-4-yl)methyl](ethyl)amino}cyclohexyl]-1,3,4-thiadiazol-2-yl}pyridin-2-yl]pyrrolo[1,2-b]pyridazine-3-carbonitrile]
0.023 µM | 71% | N#Cc1cnn2c(-c3cc(NC4CCOCC4)c(-c4nnc(N5CCN(C6CC7(CCN(c8ccc(C9CCC(=O)NC9=O)cn8)CC7)C6)CC5)s4)cn3)ccc2c1 (racemic) [Example 74, rac-7-(5-{5-[4-(7-{5-[(3R)-2,6-dioxopiperidin-3-yl]pyridin-2-yl}-7-azaspiro[3.5]nonan-2-yl)piperazin-1-yl]-1,3,4-thiadiazol-2-yl}-4-[(oxan-4-yl)amino]pyridin-2-yl)pyrrolo[1,2-b]pyridazine-3-carbonitrile]
0.07 µM | 36% | CNc1cc(-c2ccc3cc(C#N)cnn23)ncc1-c1nnc([C@H]2CC[C@H](CN3CCc4cc([C@H]5CCC(=O)NC5=O)ccc4C3)CC2)s1 (racemic) [Example 6, 7-[4-(methylamino)-5-{5-[(1r,4r)-4-({6-[(3RS)-2,6-dioxopiperidin-3-yl]-1,2,3,4-tetrahydroisoquinolin-2-yl}methyl)cyclohexyl]-1,3,4-thiadiazol-2-yl}pyridin-2-yl]pyrrolo[1,2-b]pyridazine-3-carbonitrile]
0.053 µM | 90% | N#Cc1cnn2c(-c3cc(NC4CC4)c(-c4nnc(N5CCN(CC6CCN(c7ccc(C8CCC(=O)NC8=O)cc7)CC6)CC5)s4)cn3)ccc2c1 (racemic) [Example 77, rac-7-[4-(cyclopropylamino)-5-(5-{4-[(1-{4-[(3R)-2,6-dioxopiperidin-3-yl]phenyl}piperidin-4-yl)methyl]piperazin-1-yl}-1,3,4-thiadiazol-2-yl)pyridin-2-yl]pyrrolo[1,2-b]pyridazine-3-carbonitrile]
0.1 µM | 111% | N#Cc1cnn2c(-c3cc(NC4CCOCC4)c(-c4nnc(N5CCN(CC6CCN(c7ccc([C@H]8CCC(=O)NC8=O)nc7)CC6)CC5)s4)cn3)ccc2c1 (single isomer, unassigned) [Example 116]
0.068 µM | 109% | N#Cc1cnn2c(-c3cc(NC4CC4)c(-c4nnc(N5CCN(CC6CCN(c7ccc([C@@H]8CCC(=O)NC8=O)cc7)CC6)CC5)s4)cn3)ccc2c1 (single isomer, unassigned) [Example 120]
0.009 µM | 111% | C[C@H](C#N)Nc1cc(-c2ccc3cc(C#N)cnn23)ncc1-c1nnc(N2CCN(CC3CCN(c4ccc(C5CCC(=O)NC5=O)cn4)CC3)CC2)s1 (mixture of isomers) [Example 75, 7-(4-{[(1R)-1-cyanoethyl]amino}-5-(5-{4-[(1-{5-[(3RS)-2,6-dioxopiperidin-3-yl]pyridin-2-yl}piperidin-4-yl)methyl]piperazin-1-yl}-1,3,4-thiadiazol-2-yl)pyridin-2-yl)pyrrolo[1,2-b]pyridazine-3-carbonitrile]
